Test results reported in US10196436B2, “Inhibitors of the fibroblast growth factor receptor” (BLUEPRINT MEDICINES CORPORATION, priority 2012, dated 2019).
pIC50: −log10 of the molar value. Entries after “also recorded” stand apart in the source; their conditions may differ. Where two headings read alike, the source gives them in different places.

Experiments:
Hep3B xenograft tumors = experiment: Hep3B liver cancer cell subcutaneous xenograft model, tumor growth inhibition; format: in vivo, Mus Musculus
Method: […] female nude mice (Mus Musculus) age 6 to 8 weeks were used. Tumor cell culture and inoculation: Hep3B cells were cultured with EMEM medium (Invitrogen, USA) supplemented with 10% FBS (Gibco, Australia). The cells were harvested in 90% confluence, and the viability was no less than 90%. Mice were implanted subcutaneously (s.c.) with 200 μL of 10×10^6 Hep3B cells in 50% Matrigel in the right flank at the beginning of the study.
Animal grouping and dosing schedule: Ten days after cell implantation, when tumors reached an average volume of 199 mm^3, 45 mice were selected based on tumor volume and randomly assigned to 5 treatment groups (n=9). The day of randomization was denoted as Do and the treatment was started from then on.
(§1) Tumor volume and body weight measurements: Tumor size was measured twice per week in two dimensions using a caliper, and the volume was expressed in mm^3 using the formula: V=0.5 a×b^2 where a and b were the long and short diameters of the tumor, respectively. Body weight was measured at least twice weekly.

Hep3B cells = experiment: Induction of apoptosis, Caspase-Glo3/7 assay in Hep3B cells; format: cell-based; conditions: 6 hours
Method: Hep3B cells were seeded at 20 k/well in 96-well white plates in 200 ul of DMEM/5% FBS overnight. The next day compound was added at a final DMSO concentration of 0.1% and incubated for 6 hours. Caspase activity was measured according to manufacture instruction (Caspase-Glo3/7 Assay (Promega)). Briefly, 100 ul of Caspase-Glo3/7 reagent was added to each well and incubated for 1 hour in the dark. Luminescence was measured using EnVision.

[1] = test system: MDA-MB-453 cells, which harbor an activating FGFR4 mutation; experiment: Cellular potency: phosphorylation of Erk in MDA-MB-453 cells (immunoblot); conditions: Homo sapiens, MDA-MB-453, 1 h, read-out: Potency (pErk IC50)
Method: Dose response in MDA-MB-453 cells, which harbor an activating FGFR4 mutation, was measured as follows. Briefly, MDA-MB-453 cells were seeded at 2.5×10^6 cells/6 well, and starved overnight. Compounds were added at varying concentrations (3000, 1000, 300, 100, and 30 nM) for 1 hour. Samples were collected and lysed for immunoblot analysis. The phosphorylation of Erk was measured and the average pErk value of three replicates was plotted with three parameter dose-response (inhibition) curve fit using Prism GraphPad software, which was used to determine the IC50 values.

wild type FGFR-1 = wild type FGFR-1 (Homo sapiens (Human), UniProt P11362); experiment: FGFR-1 wild type assay at Km (Caliper electrophoretic mobility shift); format: biochemical; conditions: 400 uM ATP, 90 minutes, 25 C; read-out: FGFR1 IC50
Chain of wild type FGFR-1 (P11362 22-822): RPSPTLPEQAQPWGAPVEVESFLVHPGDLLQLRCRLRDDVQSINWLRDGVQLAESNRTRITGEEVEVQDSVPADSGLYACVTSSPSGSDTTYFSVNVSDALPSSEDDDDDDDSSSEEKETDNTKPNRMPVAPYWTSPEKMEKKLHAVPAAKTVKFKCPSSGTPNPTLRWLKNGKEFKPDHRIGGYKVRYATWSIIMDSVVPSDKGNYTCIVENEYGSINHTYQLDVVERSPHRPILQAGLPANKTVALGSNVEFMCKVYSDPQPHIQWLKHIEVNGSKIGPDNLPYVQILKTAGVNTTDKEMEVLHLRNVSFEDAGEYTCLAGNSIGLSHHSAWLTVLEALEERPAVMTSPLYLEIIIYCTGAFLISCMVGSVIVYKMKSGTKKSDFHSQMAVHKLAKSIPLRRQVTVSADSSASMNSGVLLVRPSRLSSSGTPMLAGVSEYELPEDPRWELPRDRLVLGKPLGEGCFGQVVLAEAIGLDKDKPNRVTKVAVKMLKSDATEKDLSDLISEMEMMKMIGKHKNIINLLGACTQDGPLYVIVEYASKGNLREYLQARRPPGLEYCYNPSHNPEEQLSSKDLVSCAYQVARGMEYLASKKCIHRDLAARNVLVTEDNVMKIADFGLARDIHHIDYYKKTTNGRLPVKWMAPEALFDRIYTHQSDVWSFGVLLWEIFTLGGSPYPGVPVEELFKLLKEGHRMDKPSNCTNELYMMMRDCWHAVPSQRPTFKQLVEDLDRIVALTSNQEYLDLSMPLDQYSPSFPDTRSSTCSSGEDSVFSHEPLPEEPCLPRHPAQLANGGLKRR
Method: (§2) In order to assess the activity of chemical compounds against the relevant kinase of interest, the Caliper LifeSciences electrophoretic mobility shift technology platform is utilized. Fluorescently labeled substrate peptide is incubated in the presence dosed levels of compounds, a set concentration of kinase and of ATP, so that a reflective proportion of the peptide is phosphorylated. At the end of the reaction, the mix of phosphorylated (product) and non-phosphorylated (substrate) peptides are passed through the microfluidic system of the Caliper LabChip® EZ Reader II, under an applied potential difference. The presence of the phosphate group on the product peptide provides a difference in mass and charge between the product peptide and the substrate peptide, resulting in a separation of the substrate and product pools in the sample. As the pools pass the LEDS within the instrument, these pools are detected and resolved as separate peaks. The ratio between these peaks therefore reflects the activity of the chemical matter at that concentration in that well, under those conditions.
(§3) The reaction was stopped by the addition of 70 ul of Stop buffer (100 mM HEPES pH 7.5, 0.015% Brij 35, 35 mM EDTA and 0.2% of Coating Reagent 3 (Caliper Lifesciences)). The plate was then read on a Caliper EZReader 2 (protocol settings: −1.9 psi, upstream voltage −700, downstream voltage −3000, post sample sip 35 s).

[2] = format: in vivo; conditions: Hep3B-bearing nude mice, entire study period, current dosages and dosing schedule
Method: as §1
Body weight change (%) of Hep3B-bearing nude mice: FIG. 8 is a line graph depicting the body weight change (%) during the entire study period.

wild type FGFR-4 = wild type FGFR-4 (Homo sapiens (Human), UniProt P22455); experiment: FGFR-4 wild type assay at Km (Caliper electrophoretic mobility shift); format: biochemical; conditions: for pIC50: read-out: FGFR4 IC50; for Ratio FGFR1/FGFR4: [IC50 for FGFR1]/[IC50 for FGFR4]
Chain of wild type FGFR-4 (P22455 22-802): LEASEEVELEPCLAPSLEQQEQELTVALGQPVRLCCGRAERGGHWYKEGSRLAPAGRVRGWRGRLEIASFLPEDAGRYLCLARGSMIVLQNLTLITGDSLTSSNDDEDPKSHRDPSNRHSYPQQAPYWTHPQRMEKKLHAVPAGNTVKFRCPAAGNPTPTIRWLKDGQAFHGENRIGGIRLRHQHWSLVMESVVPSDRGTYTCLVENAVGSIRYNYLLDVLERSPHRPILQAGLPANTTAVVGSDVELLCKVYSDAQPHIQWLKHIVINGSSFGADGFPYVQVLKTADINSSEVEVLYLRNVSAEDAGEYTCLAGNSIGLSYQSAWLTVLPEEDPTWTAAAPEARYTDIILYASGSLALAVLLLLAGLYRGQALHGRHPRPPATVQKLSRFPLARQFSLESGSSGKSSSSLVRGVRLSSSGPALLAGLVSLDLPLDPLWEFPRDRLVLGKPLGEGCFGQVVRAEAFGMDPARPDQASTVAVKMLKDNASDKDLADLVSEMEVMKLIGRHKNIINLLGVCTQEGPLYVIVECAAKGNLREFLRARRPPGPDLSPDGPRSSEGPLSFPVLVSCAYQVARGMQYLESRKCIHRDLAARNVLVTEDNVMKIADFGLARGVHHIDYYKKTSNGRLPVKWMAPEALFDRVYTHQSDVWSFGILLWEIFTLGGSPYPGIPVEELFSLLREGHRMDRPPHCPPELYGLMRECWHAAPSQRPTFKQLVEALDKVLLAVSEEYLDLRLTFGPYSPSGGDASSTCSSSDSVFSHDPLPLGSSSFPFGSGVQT
Method: as §2
as §3, with “LabChip® EZ Reader II” for “EZReader 2”

panel of kinase assays = experiment: Kinase panel selectivity score from percent of DMSO control; conditions: kinases with POC less than 10 at 3 μM divided by total distinct kinases tested
FGFR-4 = FGFR-4 (Homo sapiens (Human), UniProt P22455); experiment: Crystal structure of compound bound to FGFR-4; format: binding
Chain of FGFR-4 (P22455 22-802): as above

[3] = target: GST-tagged recombinant wild type FGFR-4 (Homo sapiens (Human), UniProt P22455); experiment: Covalency: mass spectrometry of protein-inhibitor complex; format: binding; conditions: 300 uM compound, 75 uM FGFR-4, 3 hours room temperature then 13 hours 4° C.
Chain of GST-tagged recombinant wild type FGFR-4 (P22455 460-802): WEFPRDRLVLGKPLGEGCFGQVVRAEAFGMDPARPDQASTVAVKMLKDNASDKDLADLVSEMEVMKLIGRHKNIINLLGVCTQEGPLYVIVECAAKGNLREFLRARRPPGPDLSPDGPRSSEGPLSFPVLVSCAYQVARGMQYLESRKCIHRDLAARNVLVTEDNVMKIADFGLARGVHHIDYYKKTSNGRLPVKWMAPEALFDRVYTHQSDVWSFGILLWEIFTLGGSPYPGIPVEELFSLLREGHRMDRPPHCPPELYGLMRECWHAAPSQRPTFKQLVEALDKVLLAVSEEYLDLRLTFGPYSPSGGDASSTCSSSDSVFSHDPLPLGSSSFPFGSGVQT
Method: The protein-inhibitor complex was then desalted using Pierce detergent removal columns (Thermo Pierce). The unmodified protein and protein-inhibitor complex were analyzed by electron spray mass spectrometry to determine their respective molecular weights.

| Compound | pIC50 [1] | pIC50 (wild type FGFR-4; 400 uM ATP, 90 minutes, 25 C) | Ratio FGFR1/FGFR4 (wild type FGFR-4) | further results |
| --- | --- | --- | --- | --- |
| COc1cc(CCc2cc(NC(=O)c3ccc(N4CC(C)NC(C)C4)cc3)n[nH]2)cc(OC)c1 (stereo not drawn) [BGJ398, reference compound] |  |  |  | tumor volume vs vehicle group (Hep3B xenograft tumors; 20 mg/kg PO QD, entire study, nude mice): significant difference in tumor volume between BGJ398 (20 mg/kg PO QD) and vehicle groups was not observed; induction of apoptosis (caspase activity) (Hep3B cells): induction of apoptosis, although at a higher concentration |
| C=CC(=O)Nc1cccc(C)c1Nc1cc2c(cn1)cc(-c1cc(OC)cc(OC)c1)c(=O)n2C [COMPOUND 18] | 7.00 to 8.00 |  |  | pIC50 (wild type FGFR-1): < 6.00 |
| C#CC(=O)NCc1cccn2c(-c3cc(NC(=O)NCC(F)(F)F)cc(OC(C)C)c3)cnc12 [COMPOUND 20, N-((3-(3-isopropoxy-5-(3-(2,2,2-trifluoroethyl)ureido)phenyl)imidazo[1,2-a]pyridin-8-yl)methyl)propiolamide] | < 7.00 |  |  | pIC50 (wild type FGFR-1): < 6.00 |
| C=CC(=O)Nc1cccc(C)c1Nc1ncc2cc(-c3c(Cl)c(OC)cc(OC)c3Cl)ccc2n1 [COMPOUND 25, N-(2-((6-(2,6-dichloro-3,5-dimethoxyphenyl)quinazolin-2-yl)amino)-3-methylphenyl)acrylamide] | 8.00 to 9.00 |  |  | body weight change / tolerability [2]: well tolerated; tumor volume vs vehicle group (Hep3B xenograft tumors; 100 mg/kg PO BID, Day 4 to Day 19, nude mice): Statistically significant reduction of tumor volumes; also recorded: regressed; tumor volume vs vehicle group (Hep3B xenograft tumors; 300 mg/kg PO BID, Day 4 to Day 19, nude mice): Statistically significant reduction of tumor volumes; also recorded: almost disappeared; induction of apoptosis (caspase activity) (Hep3B cells): potent induction of apoptosis |
| C=CC(=O)Nc1cccc(F)c1Nc1ncc2cc(-c3c(Cl)c(OC)cc(OC)c3Cl)ccc2n1 [COMPOUND 27] | 8.00 to 9.00 | > 8.00 | C (the ratio is ≥100 and <200) | selectivity score [S(10) @3 μM] (panel of kinase assays): ≤ 0.030 |
| C=CC(=O)Nc1ccccc1Nc1cc2c(cn1)cc(-c1c(Cl)c(OC)cc(OC)c1Cl)c(=O)n2C [COMPOUND 31] | > 9.00 | > 8.00 | B (the ratio is ≥200 and <500) |  |
| C=CC(=O)Nc1ccc(F)c(C)c1Nc1ncc2cc(-c3c(Cl)c(OC)cc(OC)c3Cl)ccc2n1 [COMPOUND 33] | 8.00 to 9.00 |  | F (the ratio of [IC50 for FGFR1]/[IC50 for FGFR4] is less than 10) | pIC50 (wild type FGFR-1): < 6.00 |
| C=CC(=O)Nc1cccc(C)c1Nc1ncc2cc(-c3c(Cl)c(OC)cc(OC)c3Cl)cc(F)c2n1 [COMPOUND 34, N-(2-((6-(2,6-dichloro-3,5-dimethoxyphenyl)-8-fluoroquinazolin-2-yl)amino)-3-methylphenyl)acrylamide] | 8.00 to 9.00 |  |  | pIC50 (wild type FGFR-4): > 8.00 |
| C=CC(=O)Nc1ccccc1-c1ccn2c(-c3cc(NC(=O)NCC(F)(F)F)cc(OC(C)C)c3)cnc2c1 [COMPOUND 38, N-(2-(3-(3-isopropoxy-5-(3-(2,2,2-trifluoroethyl)ureido)phenyl)imidazo[1,2-a]pyridin-7-yl)phenyl)acrylamide] | 7.00 to 8.00 |  | E (the ratio is >10 and <50) |  |
| C=CC(=O)N(CCCCN(CC)CC)c1ncc2cc(-c3cc(OC)cc(OC)c3)c(NC(=O)NC(C)(C)C)nc2n1 [COMPOUND 52, N-(7-(3-(tert-butyl)ureido)-6-(3,5-dimethoxyphenyl)pyrido[2,3-d]pyrimidin-2-yl)-N-(4-(diethylamino)butyl)acrylamide] |  | > 8.00 | C (the ratio is ≥100 and <200) | residue bound in crystal structure (FGFR-4): binds to the cysteine at residue 552 of FGFR-4; mass difference between protein-inhibitor complex and unmodified protein [3]: 575.1252 daltons |
| C=CC(=O)N(CCCCN(CC)CC)c1ncc2cc(-c3c(Cl)c(OC)cc(OC)c3Cl)c(NC(=O)NC(C)(C)C)nc2n1 [COMPOUND 55, N-(7-(3-(tert-butyl)ureido)-6-(2,6-dichloro-3,5-dimethoxyphenyl)pyrido[2,3-d]pyrimidin-2-yl)-N-(4-(diethylamino)butyl) acrylamide] |  | > 8.00 | A (the ratio is >500) | selectivity score [S(10) @3 μM] (panel of kinase assays): ≤ 0.030 |
| CNC(=O)c1cc(Oc2ccc(NC(=O)Nc3ccc(Cl)c(C(F)(F)F)c3)cc2)ccn1 [Sorafenib, reference compound] |  |  |  | tumor volume vs vehicle group (Hep3B xenograft tumors; 30 mg/kg PO QD, Day 4 to Day 19, nude mice): Statistically significant reduction of tumor volumes |

Now from value to molecule, other results behind:

| pIC50 [1] | pIC50 (wild type FGFR-4; 400 uM ATP, 90 minutes, 25 C) | Ratio FGFR1/FGFR4 (wild type FGFR-4) | Compound | further results |
| --- | --- | --- | --- | --- |
| 8.00 to 9.00 | > 8.00 | A (the ratio is >500) | C=CC(=O)Nc1cccc(C)c1Nc1ncc2cc(-c3c(Cl)c(OC)cc(OC)c3Cl)cnc2n1 [COMPOUND 26, N-(2-((6-(2,6-dichloro-3,5-dimethoxyphenyl)pyrido[2,3-d]pyrimidin-2-yl)amino)-3-methylphenyl)acrylamide] |  |
| > 9.00 | > 8.00 | E (the ratio is >10 and <50) | C=CC(=O)Nc1cccc(C)c1Nc1cc2c(cn1)cc(-c1c(Cl)c(OC)cc(OC)c1Cl)c(=O)n2C [COMPOUND 39] | pIC50 (wild type FGFR-1): < 6.00 |
| 8.00 to 9.00 | > 8.00 | A (the ratio is >500) | C=CC(=O)Nc1cccc(C)c1Nc1ncc2cc(-c3c(Cl)c(OC)cc(OC)c3Cl)cc(OC)c2n1 [COMPOUND 41] | selectivity score [S(10) @3 μM] (panel of kinase assays): ≤ 0.030 |
| > 9.00 | > 8.00 | E (the ratio is >10 and <50) | C=CC(=O)Nc1cccc(C)c1Nc1ncc2nc(-c3c(Cl)c(OC)cc(OC)c3Cl)c(=O)n(C)c2n1 [COMPOUND 45, N-(2-((6-(2,6-dichloro-3,5-dimethoxyphenyl)-8-methyl-7-oxo-7,8-dihydropteridin-2-yl)amino)-3-methylphenyl)acrylamide] | pIC50 (wild type FGFR-1): < 6.00 |
| > 9.00 | > 8.00 | E (the ratio is >10 and <50) | C=CC(=O)Nc1cccc(F)c1Nc1cc2c(cn1)cc(-c1c(Cl)c(OC)cc(OC)c1Cl)c(=O)n2C [COMPOUND 46] |  |
| 8.00 to 9.00 | > 8.00 | C (the ratio is ≥100 and <200) | C=CC(=O)Nc1cc(N2CCOCC2)cc(C)c1Nc1ncc2cc(-c3c(Cl)c(OC)cc(OC)c3Cl)ccc2n1 [COMPOUND 53] |  |
